Laboratory results from patent US20060030616A1, “Anhydride modified cantharidin analogues useful in the treatment of cancer” (priority 1998, published 2006).

Columns and labels:
L1210 cells = experiment: Checkpoint abrogation after 6 Gy radiation, flow cytometry; type: cell-based, murine; conditions: 12 h after drug
Procedure: (§1) The cells are fixed in 70% ethanol and stored at −20° C. until analysis is performed (1-2 weeks). After fixing, the cells are pelleted and incubated in PBS containing propidium iodide ([…]) and RNase A (200 mg/ml) for at least 30 min at room temperature. The samples (2×10^4 events) are analysed using a Becton Dickson FACScan, fluorescence is collected in fluorescence detector 2 (FL2), filter 575/30 nm band pass. Cell cycle distribution is assessed using Cell Quest software (Becton Dickson).
(§2) The ability of the protein phosphatase inhibitors to abrogate the G1 or G2 checkpoint of the cell cycle may be determined by cell cycle analysis using flow cytometry. Briefly, asynchronous cell cultures are harvested 18 h after 6 Gy irradiation and/or 12 h incubation with the protein phosphatase inhibitor. Depending upon the p53 status of the cell line, radiation treatment alone will induce arrest in either G1 and/or G2 phase of the cell cycle.
(§3) If the protein phosphatase inhibitor abrogates the G2 checkpoint then the cells will not arrest in the G2 phase of the cell cycle and the cells will continue through the cell cycle and accumulate in the G1 phase of the cell cycle only. Similarily if the protein phosphatase inhibitors abrogates the G1 checkpoint then the cells will not arrest in the G1 phase of the cell cycle and accumulate in the G2 phase of the cell cycle only. Cell cycle analysis using propidium iodide labelling of DNA has been used extensively in our laboratory to assess the effect of specific anticancer agents that induce S-phase cell cycle arrest and apoptotic cell death (Sakoff, Ackland and Stewart, 1998). Experiments were performed on a Becton Dickinson FACScan and using Cell Quest software.
(§4) The cells were treated with 6 Gy of radiation and then treated with cantharidin 6 h later. The ability to abrogate cell cycle arrest was assessed is 12 h after the addition of the drugs.

HT29 cells [1] = experiment: Cell cycle analysis, flow cytometry of propidium iodide stained cells; type: cell-based, human; conditions: 12 h
HCT116 cells [2] = experiment: as above; type: cell-based, human
HT29 cells [3] = experiment: Checkpoint abrogation after 6 Gy radiation, flow cytometry; type: cell-based, human; conditions: 12 h after drug
Procedure: as §1, §2, §3, §4

HL60 cells = experiment: as above; type: cell-based, human; conditions: 12 h after drug
Procedure: as §1, §2, §3, §4

HCT116 cells [4] = experiment: as above; type: cell-based, human; conditions: 12 h after drug
Procedure: as §1, §2, §3, §4

## O=C1OC(=O)C2C3C=CC(O3)C12 (centres unmarked) [MK-2]
L1210 cells; L1210, 50 μM, 18 h after 6Gy
  Cell Cycle Distribution, G1: 19.0 percentage of total
  Cell Cycle Distribution, G2 + M: 50.1 percentage of total
  Cell Cycle Distribution, S: 27.8 percentage of total
  Cell Cycle Distribution, sub G1: 4.0 percentage of total
L1210 cells; L1210, 100 μM, 18 h after 6Gy
  Cell Cycle Distribution, G1: 18.4 percentage of total
  Cell Cycle Distribution, G2 + M: 55.8 percentage of total
  Cell Cycle Distribution, S: 23.0 percentage of total
  Cell Cycle Distribution, sub G1: 3.5 percentage of total
L1210 cells; L1210, 250 μM, 18 h after 6Gy
  Cell Cycle Distribution, G1: 11.2 percentage of total
  Cell Cycle Distribution, G2 + M: 71.9 percentage of total
  Cell Cycle Distribution, S: 10.0 percentage of total
  Cell Cycle Distribution, sub G1: 6.9 percentage of total
L1210 cells; L1210, 500 μM, 18 h after 6Gy
  Cell Cycle Distribution, G1: 3.4 percentage of total
  Cell Cycle Distribution, G2 + M: 88.4 percentage of total
  Cell Cycle Distribution, S: 2.9 percentage of total
  Cell Cycle Distribution, sub G1: 5.4 percentage of total
  Checkpoint remark: G1 abrogation
L1210 cells; L1210, 6 Gy
  Checkpoint abrogation: abrogated radiation induced G1 arrest
HT29 cells [1]; HT29, 50 μM
  Cell Cycle Distribution, G1: 45.3 percentage of total
  Cell Cycle Distribution, G2 + M: 37.1 percentage of total
  Cell Cycle Distribution, S: 7.6 percentage of total
  Cell Cycle Distribution, sub G1: 9.4 percentage of total
HT29 cells [1]; HT29, 100 μM
  Cell Cycle Distribution, G1: 49.8 percentage of total
  Cell Cycle Distribution, G2 + M: 37.6 percentage of total
  Cell Cycle Distribution, S: 8.2 percentage of total
  Cell Cycle Distribution, sub G1: 3.6 percentage of total
HT29 cells [1]; HT29, 250 μM
  Cell Cycle Distribution, G1: 41.4 percentage of total
  Cell Cycle Distribution, G2 + M: 42.5 percentage of total
  Cell Cycle Distribution, S: 11.2 percentage of total
  Cell Cycle Distribution, sub G1: 4.2 percentage of total
  Cell cycle remark: G2 arrest
HT29 cells [1]; HT29, 500 μM
  Cell Cycle Distribution, G1: 44.5 percentage of total
  Cell Cycle Distribution, G2 + M: 33.6 percentage of total
  Cell Cycle Distribution, S: 15.4 percentage of total
  Cell Cycle Distribution, sub G1: 5.2 percentage of total
  Cell cycle remark: S-phase↑
HCT116 cells [2]; HCT116, 50 μM, 12 h
  Cell Cycle Distribution, G1: 47.2 percentage of total
  Cell Cycle Distribution, G2 + M: 37.4 percentage of total
  Cell Cycle Distribution, S: 13.8 percentage of total
  Cell Cycle Distribution, sub G1: 1.3 percentage of total
HCT116 cells [2]; HCT116, 100 μM, 12 h
  Cell Cycle Distribution, G1: 47.2 percentage of total
  Cell Cycle Distribution, G2 + M: 34.5 percentage of total
  Cell Cycle Distribution, S: 16.0 percentage of total
  Cell Cycle Distribution, sub G1: 1.7 percentage of total
HCT116 cells [2]; HCT116, 250 μM, 12 h
  Cell Cycle Distribution, G1: 52.8 percentage of total
  Cell Cycle Distribution, G2 + M: 34.3 percentage of total
  Cell Cycle Distribution, S: 11.1 percentage of total
  Cell Cycle Distribution, sub G1: 1.4 percentage of total
HCT116 cells [2]; HCT116, 500 μM, 12 h
  Cell Cycle Distribution, G1: 39.4 percentage of total
  Cell Cycle Distribution, G2 + M: 46.5 percentage of total
  Cell Cycle Distribution, S: 11.3 percentage of total
  Cell Cycle Distribution, sub G1: 2.5 percentage of total
  Cell cycle remark: G2 arrest
HCT116 cells [2]; HCT116, 12 h exposure
  Cell cycle response: G2 arrest
HT29 cells [3]; HT29, 5 μM, 18 h after 6Gy
  Cell Cycle Distribution, G1: 31.8 percentage of total
  Cell Cycle Distribution, G2 + M: 41.3 percentage of total
  Cell Cycle Distribution, S: 8.7 percentage of total
  Cell Cycle Distribution, sub G: 17.3 percentage of total
HT29 cells [3]; HT29, 50 μM, 18 h after 6Gy
  Cell Cycle Distribution, G1: 35.4 percentage of total
  Cell Cycle Distribution, G2 + M: 44.7 percentage of total
  Cell Cycle Distribution, S: 8.8 percentage of total
  Cell Cycle Distribution, sub G: 10.3 percentage of total
HT29 cells [3]; HT29, 100 μM, 18 h after 6Gy
  Cell Cycle Distribution, G1: 40.6 percentage of total
  Cell Cycle Distribution, G2 + M: 45.9 percentage of total
  Cell Cycle Distribution, S: 9.0 percentage of total
  Cell Cycle Distribution, sub G: 3.5 percentage of total
HT29 cells [3]; HT29, 250 μM, 18 h after 6Gy
  Cell Cycle Distribution, G1: 24.9 percentage of total
  Cell Cycle Distribution, G2 + M: 59.4 percentage of total
  Cell Cycle Distribution, S: 12.3 percentage of total
  Cell Cycle Distribution, sub G: 2.7 percentage of total
HT29 cells [3]; HT29, 500 μM, 18 h after 6Gy
  Cell Cycle Distribution, G1: 24.1 percentage of total
  Cell Cycle Distribution, G2 + M: 45.2 percentage of total
  Cell Cycle Distribution, S: 20.4 percentage of total
  Cell Cycle Distribution, sub G: 8.8 percentage of total
  Checkpoint remark: G1 abrogation
HT29 cells [3]; HT29, 6 Gy
  Checkpoint abrogation: abrogated radiation induced G1 arrest
HL60 cells; HL60, 50 μM, 18 h after 6Gy
  Cell Cycle Distribution, G1: 6.1 percentage of total
  Cell Cycle Distribution, G2 + M: 85.5 percentage of total
  Cell Cycle Distribution, S: 2.8 percentage of total
  Cell Cycle Distribution, sub G: 5.9 percentage of total
HL60 cells; HL60, 100 μM, 18 h after 6Gy
  Cell Cycle Distribution, G1: 6.1 percentage of total
  Cell Cycle Distribution, G2 + M: 85.4 percentage of total
  Cell Cycle Distribution, S: 3.3 percentage of total
  Cell Cycle Distribution, sub G: 5.5 percentage of total
HL60 cells; HL60, 250 μM, 18 h after 6Gy
  Cell Cycle Distribution, G1: 5.4 percentage of total
  Cell Cycle Distribution, G2 + M: 83.9 percentage of total
  Cell Cycle Distribution, S: 2.8 percentage of total
  Cell Cycle Distribution, sub G: 8.1 percentage of total
HL60 cells; HL60, 500 μM, 18 h after 6Gy
  Cell Cycle Distribution, G1: 4.4 percentage of total
  Cell Cycle Distribution, G2 + M: 80.0 percentage of total
  Cell Cycle Distribution, S: 4.1 percentage of total
  Cell Cycle Distribution, sub G: 11.8 percentage of total
  Checkpoint remark: Cell Death
HL60 cells; HL60, 6 Gy
  Checkpoint abrogation: abrogated radiation induced G1 arrest
HCT116 cells [4]; HCT116, 5 μM, 18 h after 6Gy
  Cell Cycle Distribution, G1: 30.8 percentage of total
  Cell Cycle Distribution, G2 + M: 57.2 percentage of total
  Cell Cycle Distribution, S: 7.9 percentage of total
  Cell Cycle Distribution, sub G: 3.7 percentage of total
HCT116 cells [4]; HCT116, 50 μM, 18 h after 6Gy
  Cell Cycle Distribution, G1: 32.8 percentage of total
  Cell Cycle Distribution, G2 + M: 57.3 percentage of total
  Cell Cycle Distribution, S: 6.3 percentage of total
  Cell Cycle Distribution, sub G: 3.3 percentage of total
HCT116 cells [4]; HCT116, 100 μM, 18 h after 6Gy
  Cell Cycle Distribution, G1: 29.9 percentage of total
  Cell Cycle Distribution, G2 + M: 59.6 percentage of total
  Cell Cycle Distribution, S: 7.2 percentage of total
  Cell Cycle Distribution, sub G: 3.1 percentage of total
HCT116 cells [4]; HCT116, 250 μM, 18 h after 6Gy
  Cell Cycle Distribution, G1: 23.9 percentage of total
  Cell Cycle Distribution, G2 + M: 65.4 percentage of total
  Cell Cycle Distribution, S: 4.3 percentage of total
  Cell Cycle Distribution, sub G: 6.2 percentage of total
HCT116 cells [4]; HCT116, 500 μM, 18 h after 6Gy
  Cell Cycle Distribution, G1: 15.4 percentage of total
  Cell Cycle Distribution, G2 + M: 73.0 percentage of total
  Cell Cycle Distribution, S: 4.9 percentage of total
  Cell Cycle Distribution, sub G: 6.4 percentage of total
  Checkpoint remark: G1 abrogation
HCT116 cells [4]; HCT116, 6 Gy
  Checkpoint abrogation: abrogated radiation induced G1 arrest
